Measurements: US4503256A, “Phlorophenone derivatives, processes for preparing such compounds, uses and pharmaceutical compositions of phlorophenone compounds” (Noristan Limited, priority 1981, dated 1985)
≈ marks a conversion by molar mass, not a printed value. Read-outs that look alike come from different tables or passages of the source.

How the values were obtained:
S. AUREUS = assay: Minimum Inhibitory Concentration (MIC), broth dilution in Brain Heart Infusion broth; format: cell-based, Staphylococcus aureus; settings: Staphylococcus aureus, read-out: MIC S. AUREUS
Procedure: (§1) For testing against the bacteria, concentrations of each of the compounds were prepared in Brain Heart Infusion broth (Oxoid CM225) in two-fold steps from 1000 μg/ml to 1 μg/ml. Solutions containing 1000 μg/ml were prepared by dissolving 20 mg of each compound in 5 ml of acetone and this was then made up to 20 ml with Brain Heart Infusion Broth. Serial two-fold dilutions were then prepared in the broth down to 1 μg/ml.
(§2) For testing against the bacteria each of the prepared test concentrations and acetone controls prepared in Brain Heart Infusion were dispensed in 2 ml amounts for each organism. A growth control of 2 ml of Brain Heart Infusion was included in each series.
(§3) To each of the prepared sets of concentrations of each compound were added 0.1 ml aliquots of the organism suspensions prepared as described previously. All the bottles were incubated at 37° C. for 48 hours in the case of the bacteria and from 5 to 15 days for the fungi (until growth controls had grown in each case).
(§4) After incubation the broths were examined for evidence of growth. The lowest concentration of the test compound which prevented growth was recorded as the Minimum Inhibitory Concentration (MIC).

St. PYOGENES = assay: as above; format: cell-based; settings: Streptococcus pyogenes, 37° C., 48 hours
Procedure: as §1, §2, §3, §4

C. ALBICANS = assay: Minimum Inhibitory Concentration (MIC), dilution in Sabouraud liquid medium; format: cell-based; settings: Candida albicans, 37° C., 5 to 15 days
Procedure: (§5) For testing against the fungi, concentrations of each of the compounds were prepared in Sabouraud liquid medium in two-fold steps from 100 μg/ml to 0.1 μg/ml. 500 μg/ml solutions were prepared by dissolving 10 mg in 5 ml of acetone, made up to 20 ml with Sabouraud liquid medium. 4 ml of the 500 μg/ml concentration was then made up to 20 ml with Sabouraud liquid medium to give a concentration of 100 μg/ml. Serial two-fold dilutions were prepared from this in the same medium down to 0.1 μg/ml.
(§6) For the fungi the same procedure was followed using the concentrations made up in Sabouraud liquid medium. The Nystatin concentrations were also dispensed in 2 ml amounts for each organism. Growth controls of Sabouraud liquid medium were included in each series.
as §3, §4

Mic. CANIS = assay: as above; format: cell-based; settings: Microsporum canis, 37° C., 5 to 15 days
Procedure: as §5, §6, §3, §4

Sp. SCHENKII = assay: as above; format: cell-based; settings: 37° C., 5 to 15 days
Procedure: as §5, §6, §3, §4

Tr. MENTAGROPHYTES = assay: as above; format: cell-based; settings: Trichophyton mentagrophytes, 37° C., 5 to 15 days
Procedure: as §5, §6, §3, §4

Tr. RUBRUM = assay: as above; format: cell-based; settings: Trichophyton rubrum, 37° C., 5 to 15 days
Procedure: as §5, §6, §3, §4

[1] = Acute oral toxicity in CD-1 mice; format: in vivo; settings: mouse, in vivo, male and female CD-1 mice, dose levels 1000, 464, 215 and 100 mg/kg, 7 days observation
Procedure: Male and female CD-1 mice were fasted for 18 hours prior to the experiment, but water was available ad libitum except during the observation period. The test compounds were prepared in 1% tragacanth and were administered orally to groups of two male and two female mice.
All compounds were tested at dose levels of 1000, 464, 215 and 100 mg/kg. Immediately after dosing, the mice were replaced in their "home" cage and were observed daily for 7 days post dose and any mortalities recorded.
The acute toxicities, as determined by the above procedure, of a number of representative compounds are given in the accompanying table.

[2] = 37° C., 48 hours, Brain Heart Infusion broth

SMILES	MIC (S. AUREUS; [2])	MIC (St. PYOGENES)	MIC (C. ALBICANS)	MIC (Mic. CANIS)	MIC (Sp. SCHENKII)	MIC (Tr. MENTAGROPHYTES)	MIC (Tr. RUBRUM)	LD50 at 168 h [1]	MIC (S. AUREUS; 48 h)
CCCC(=O)c1c(O)c2c(c(C(=O)CCC)c1O)OC(C)C2 (stereo not shown) [Compound 37, 4,6-dihydroxy-5,7-dibutyryl-2-methyl-2,3-dihydrobenzofuran]	125 µg/mL (≈ 408 µM)	32 µg/mL (≈ 104 µM)	> 100 µg/mL	> 100 µg/mL	> 100 µg/mL	> 100 µg/mL	100 µg/mL (≈ 326 µM)	> 215 mg/kg	
C=CCc1c(O)cc(O)c(C(=O)CC)c1O [Compound 15]	250 µg/mL (≈ 1120 µM)	125 µg/mL (≈ 562 µM)	100 µg/mL (≈ 450 µM)	50 µg/mL (≈ 225 µM)	50 µg/mL (≈ 225 µM)	25 µg/mL (≈ 112 µM)	50 µg/mL (≈ 225 µM)	> 1000 mg/kg	
C=CCc1c(O)cc(O)c(C(=O)CCCCC)c1O [Compound 18]	16 µg/mL (≈ 60.5 µM)	8 µg/mL (≈ 30.3 µM)	13 µg/mL (≈ 49.2 µM)	6 µg/mL (≈ 22.7 µM)	13 µg/mL (≈ 49.2 µM)	6 µg/mL (≈ 22.7 µM)	13 µg/mL (≈ 49.2 µM)	> 1000 mg/kg	
CCCCC(=O)c1c(O)cc(O)c(CC=C(C)C)c1O [Compound 4, 2-Valeryl-4-(3-methylbuten-2-yl)phloroglucinol]	64 µg/mL (≈ 230 µM)	16 µg/mL (≈ 57.5 µM)	25 µg/mL (≈ 89.8 µM)	13 µg/mL (≈ 46.7 µM)	25 µg/mL (≈ 89.8 µM)	13 µg/mL (≈ 46.7 µM)	13 µg/mL (≈ 46.7 µM)	> 1000 mg/kg	
CCC(=O)c1c(O)cc(O)c(CC=C(C)C)c1O [Compound 2, 2-Propionyl-4-(3-methylbuten-2-yl)phloroglucinol]	125 µg/mL (≈ 499 µM)	8 µg/mL (≈ 32 µM)	50 µg/mL (≈ 200 µM)	13 µg/mL (≈ 51.9 µM)	25 µg/mL (≈ 99.9 µM)	25 µg/mL (≈ 99.9 µM)	13 µg/mL (≈ 51.9 µM)	> 1000 mg/kg	
CC(C)=CCc1c(O)cc(O)c(C(=O)Cc2ccc(Cl)cc2)c1O [Compound 14, 2-(4-Chlorophenyl)acetyl-4-(3-methylbuten-2-yl)phloroglucinol]	16 µg/mL (≈ 46.1 µM)	8 µg/mL (≈ 23.1 µM)	100 µg/mL (≈ 288 µM)	50 µg/mL (≈ 144 µM)	100 µg/mL (≈ 288 µM)	100 µg/mL (≈ 288 µM)	> 100 µg/mL	1000 mg/kg	
C=CCc1c(O)cc(O)c(C(=O)CCCC)c1O [Compound 17]	64 µg/mL (≈ 256 µM)	16 µg/mL (≈ 63.9 µM)	25 µg/mL (≈ 99.9 µM)	6 µg/mL (≈ 24 µM)	25 µg/mL (≈ 99.9 µM)	13 µg/mL (≈ 51.9 µM)	13 µg/mL (≈ 51.9 µM)	> 1000 mg/kg	
CC(C)=CCc1c(O)cc(O)c(C(=O)C2CCCC2)c1O [Compound 9, 2-(2-Cyclopentyl-1-oxo)-4-(3-methylbuten-2-yl)phloroglucinol]		8 µg/mL (≈ 27.6 µM)	6.2 µg/mL (≈ 21.4 µM)	1.6 µg/mL (≈ 5.51 µM)	6.2 µg/mL (≈ 21.4 µM)	6.2 µg/mL (≈ 21.4 µM)	3.1 µg/mL (≈ 10.7 µM)	< 100 mg/kg	32 µg/mL (≈ 110 µM)
C=CCc1c(O)cc(O)c(C(=O)CCC(C)C)c1O [Compound 19]	16 µg/mL (≈ 60.5 µM)	4 µg/mL (≈ 15.1 µM)	25 µg/mL (≈ 94.6 µM)	6 µg/mL (≈ 22.7 µM)	13 µg/mL (≈ 49.2 µM)	13 µg/mL (≈ 49.2 µM)	6 µg/mL (≈ 22.7 µM)	> 1000 mg/kg	
CCCC(=O)c1c(O)cc(O)c(C(=O)CCC)c1O [Compound 1, 2,4-Dibutyrylphloroglucinol]	2 µg/mL (≈ 7.51 µM)	1 µg/mL (≈ 3.76 µM)	13 µg/mL (≈ 48.8 µM)	3 µg/mL (≈ 11.3 µM)	6 µg/mL (≈ 22.5 µM)	6 µg/mL (≈ 22.5 µM)	6 µg/mL (≈ 22.5 µM)	> 1000 mg/kg	
CCCC(=O)c1c(O)cc(O)c2c1OC(C)(C)CC2 [Compound 30, 5,7-dihydroxy-2,2-dimethyl-8-butyryl chroman]	32 µg/mL (≈ 121 µM)	32 µg/mL (≈ 121 µM)	25 µg/mL (≈ 94.6 µM)	6 µg/mL (≈ 22.7 µM)	25 µg/mL (≈ 94.6 µM)	13 µg/mL (≈ 49.2 µM)	13 µg/mL (≈ 49.2 µM)	> 1000 mg/kg	
CCCCCCCCC(=O)c1c(O)cc(O)c(Cc2ccccc2)c1O [Compound 27, 2-Nonanoyl-4-benzylphloroglucinol]		1 µg/mL (≈ 2.81 µM)	100 µg/mL (≈ 281 µM)	50 µg/mL (≈ 140 µM)	50 µg/mL (≈ 140 µM)	5 µg/mL (≈ 14 µM)	> 100 µg/mL	> 1000 mg/kg	2 µg/mL (≈ 5.61 µM)
CC(C)CCC(=O)c1c(O)cc(O)c(Cc2ccccc2)c1O [Compound 25, 2-Isocaproyl-4-benzylphloroglucinol]	16 µg/mL (≈ 50.9 µM)	8 µg/mL (≈ 25.4 µM)	13 µg/mL (≈ 41.4 µM)	6 µg/mL (≈ 19.1 µM)	25 µg/mL (≈ 79.5 µM)	3 µg/mL (≈ 9.54 µM)	6 µg/mL (≈ 19.1 µM)	1000 mg/kg	
CCCCCC(=O)c1c(O)cc(O)c(CC=C(C)C)c1O [Compound 5, 2-Caproyl-4-(3-methylbuten-2-yl)phloroglucinol]	8 µg/mL (≈ 27.4 µM)	4 µg/mL (≈ 13.7 µM)	13 µg/mL (≈ 44.5 µM)	1.6 µg/mL (≈ 5.47 µM)	13 µg/mL (≈ 44.5 µM)	6 µg/mL (≈ 20.5 µM)	3 µg/mL (≈ 10.3 µM)	> 1000 mg/kg	
CCCC(=O)c1c(O)c2c(c(C(=O)CCC)c1O)OC(C)(C)CC2 [Compound 36, 5,7-Dihydroxy-6,8-dibutyryl-2,2-dimethylchroman]	250 µg/mL (≈ 748 µM)	64 µg/mL (≈ 191 µM)	100 µg/mL (≈ 299 µM)	100 µg/mL (≈ 299 µM)	100 µg/mL (≈ 299 µM)	100 µg/mL (≈ 299 µM)	100 µg/mL (≈ 299 µM)	> 1000 mg/kg	
CCCCCCCCC(=O)c1c(O)cc2c(c1O)CCC(C)(C)O2 [Compound 34, 5,7-dihydroxy-2,2-dimethyl-6-nonanoyl chroman]	500 µg/mL (≈ 1490 µM)	4 µg/mL (≈ 12 µM)	100 µg/mL (≈ 299 µM)	> 100 µg/mL	> 100 µg/mL	> 100 µg/mL	100 µg/mL (≈ 299 µM)	> 1000 mg/kg	
CCCCCCCCC(=O)c1c(O)cc(O)c2c1OC(C)(C)CC2 [Compound 32, 5,7-Dihydroxy-2,2-dimethyl-8-nonanoyl chroman]	64 µg/mL (≈ 191 µM)	< 1 µg/mL	100 µg/mL (≈ 299 µM)	100 µg/mL (≈ 299 µM)	100 µg/mL (≈ 299 µM)	> 100 µg/mL	> 100 µg/mL	> 1000 mg/kg	
